Data from patent publication US20250129012A1, “ANTI-INFLAMMATORY AND ANALGESIC COMPOUNDS AND USE THEREOF” (JIANGSU ATOM BIOSCIENCE AND PHARMACEUTICAL CO., LTD., priority 2021, published 2025).
Marks after values point to notes of the source that are not given here.

Assays:
[1] = tested on: gouty arthritis in rats (urate crystals, left ankle joint); experiment: Pharmacodynamics experiment A on gouty arthritis in rats: paw volume; assay type: in vivo, SD rats; conditions: for Paw volume: Mean ± SEM
Method: Compounds 2, 17, 26 and 27 were prepared by grinding with 0.5% CMC-Na into a suspension of the corresponding concentration (0.06 mg/mL) for gavage before administration, and the volume of administration was 10 mL/kg. […] Before use, 0.5% CMC-Na was used for grinding and prepared into a suspension of the corresponding concentration (0.06 mg/mL) for gavage, and the volume of drug administered was 10 mL/kg.
Each group of subjects was prepared into a suspension of the corresponding concentration, and the administration volume was 10 mL/kg.
The crystalline arthritis model was prepared by intra-articular injection of urate crystals (40 mg/mL, in the left ankle joint of each rat). Different doses of the test drug were given separately by gavage administration. The day of administration was defined as day 1 of the experiment, and the drug was administered once a day for 10 consecutive days (pre-administration of the drug for 7 days prior to modeling, modeling on day 8, and continuation of the drug for 3 days). The experiment ended on day 10.
Paw volume was measured before administration, before urate injection, and 2, 4, 8, 10, 24, and 48 h after injection.
The data obtained from the experiment were statistically analyzed using IBM SPSS Statistics 22.0. All measurements were expressed as Mean±S.E.M s. The data were analyzed using SPSS 22.0 statistical software and variance chi-square test was performed on the parameters.

IL-6 [2] = experiment: Inflammatory factor experiment A: IL-6 in gouty arthritis rats; assay type: in vivo, SD rats; conditions: synovial tissue of knee joints; dose 0.6 mg/kg gavage; day 10
Method: Compounds 14, 17 and 26 were prepared by grinding with 0.5% CMC-Na before administration and into a suspension for gavage at the corresponding concentration (0.06 mg/mL), with a dosage volume of 10 mL/kg. Colchicine, purchased from Sun Chemical Technology (Shanghai) Co., Ltd. with batch no. 49ETRRAS, and was prepared by grinding with 0.5% CMC-Na before administration and into a suspension for gavage at the corresponding concentration (0.06 mg/mL), with a dosage volume of 10 mL/kg.
The compounds in each group were prepared into a suspension of the corresponding concentration, and the dosage volume was 10 mL/kg.
The crystalline arthritis model was prepared by intra-articular injection of urate crystals (40 mg/mL in the left ankle joint of each rat). Different doses of the test compounds were given separately by gavage administration. The day of administration was defined as day 1 of the experiment, and the compounds were administered once a day for 10 consecutive days (pre-administration of the drug for 7 days prior to modeling, modeling on day 8, and continuation of the drug for 3 days). The experiment ended on day 10. […]

TNF-α = experiment: Inflammatory factor experiment B: TNF-α in knee synovial tissue (ELISA); assay type: in vivo, SD rats
IL-1β = experiment: Inflammatory factor experiment B: IL-1β in knee synovial tissue (ELISA); assay type: in vivo, SD rats
IL-6 [3] = experiment: Inflammatory factor experiment B: IL-6 in knee synovial tissue (ELISA); assay type: in vivo, SD rats
[4] = Acute toxicity test in mice by single administration; assay type: in vivo, ICR mice; conditions: both sexes, ICR, mouse, in vivo, po; acute toxicity, mice, single gavage; read-out: Maximum tolerated dose (MTD)
Method: (§1) Compounds 34, 48, 55 and 58 were ground with 0.5% CMC-Na before administration, and prepared into a suspension of the corresponding concentration for gavage, with an administration volume of 0.1 mL/10 g.
(§2) ICR mice, SPF grade, weighing 18-20 g, 6-8 weeks old, were provided by Nantong University. The Laboratory Animal Production License was SCXK (Su) 2016-0010 and Laboratory Animal Use License was SYXK (Su) 2017-0035.
(§3) After overnight fasting, the drug was administered once by gavage in a volume of 0.1 mL/10 g. The normal group was given the corresponding volume of 0.5% CMC-Na solution according to body weight. The state of the animal was observed after administration, the animals were weighed daily and the number of deaths was recorded for 14 consecutive days.

ICR mice = experiment: as above; assay type: in vivo; conditions: single gavage dose 50 mg/kg; 14 days; deaths/animals
Method: as §1, §2, §3

[5] = tested on: novel coronavirus infection; conditions: cited from earlier work
[6] = death 35 h after ingestion; cited from earlier work
[7] = compounds 0.6 mg/kg, colchicine 0.6 and 1.2 mg/kg
[8] = 4,159 patients with nasopharyngeal nucleic acid test

COc1cc2c(c(OC)c1OC)-c1ccc(OC)c(=O)cc1[C@@H](NC(C)=O)CC2 [colchicine, reference compound]
Paw volume versus model group, in words ([1]; 0.6 mg/kg gavage, time points after modeling): significantly smaller than those in the model group at 2 h, 4 h, 8 h, 10 h, and 48 h after modeling
Paw volume ([1]; 2 h after modeling, 0.6 mg/kg gavage): 2.44 ± 0.02*** cm^3
Paw volume ([1]; 4 h after modeling, 0.6 mg/kg gavage): 2.45 ± 0.03** cm^3
Paw volume ([1]; 8 h after modeling, 0.6 mg/kg gavage): 2.44 ± 0.04*** cm^3
Paw volume ([1]; 10 h after modeling, 0.6 mg/kg gavage): 2.46 ± 0.04** cm^3
Paw volume ([1]; 24 h after modeling, 0.6 mg/kg gavage): 2.46 ± 0.05 cm^3
Paw volume ([1]; 48 h after modeling, 0.6 mg/kg gavage): 2.24 ± 0.03*** cm^3
Paw volume ([1]; before modeling, 0.6 mg/kg gavage once a day): 2.18 ± 0.03 cm^3
Decreased IL-6 percentage % (IL-6 [2]): 107.14%
inhibition in vivo at 0.6 mg/kg (TNF-α; Rattus norvegicus, po, synovial tissue of knee joints, 48 h after modeling, dose 0.6 mg/kg, read-out: TNF-α percentage decrease %): 58%
inhibition in vivo at 1.2 mg/kg (TNF-α; Rattus norvegicus, po, synovial tissue of knee joints, 48 h after modeling, dose 1.2 mg/kg (high dose group), read-out: TNF-α percentage decrease %): 52.5%
TNF-α level after modeling, in words (TNF-α; [7]): could reduce the TNF-αlevel
inhibition in vivo at 0.6 mg/kg (IL-1β; Rattus norvegicus, po, synovial tissue of knee joints, 48 h after modeling, dose 0.6 mg/kg, read-out: IL-1β percentage decrease %): 74.2%
inhibition in vivo at 1.2 mg/kg (IL-1β; Rattus norvegicus, po, synovial tissue of knee joints, 48 h after modeling, dose 1.2 mg/kg (high dose group), read-out: IL-1β percentage decrease %): 63.1%
IL-1β level after modeling, in words (IL-1β; [7]): reduced IL-1β in synovial tissue
inhibition in vivo at 0.6 mg/kg (IL-6 [3]; Rattus norvegicus, po, synovial tissue of knee joints, 48 h after modeling, dose 0.6 mg/kg, read-out: IL-6 percentage decrease %): 83.5%
inhibition in vivo at 1.2 mg/kg (IL-6 [3]; Rattus norvegicus, po, synovial tissue of knee joints, 48 h after modeling, dose 1.2 mg/kg (high dose group), read-out: IL-6 percentage decrease %): 96.3%
IL-6 level after modeling, in words (IL-6 [3]; [7]): could reduce the IL-6 level
MTD at 14 days [4]: < 50 mg/kg
Mortality rate (ICR mice): 3/6
Reduction of hospital admissions [5, 8]: 25%
Reduction of need for respiratory equipment [5, 8]: 50%
Reduction of number of deaths [5, 8]: 44%
Lower risk of hospitalization or death compared with placebo ([5]; 4,488 non-hospitalized patients): 21%
Dose with reported death cases [6]: 0.4 mg/kg
